This is an account of results in patent US5344841A, “Bis-(hydroxylakylamino)-anthraquinone inhibitors of protein kinase C” (Sphinx Pharmaceuticals Corporation, priority 1992, dated 1994).

For experiment [1], the target named is protein kinase C. Kind of experiment: Protein kinase C (PKC) inhibition assay (histone H1 phosphorylation). It is filed as biochemical. The following applies: rat brain PKC, histone H1 substrate. The procedure: The protein kinase C (PKC) assay is designed to duplicated the in vivo conditions required for protein kinase C function. Therefore, pH, salt and cofactor concentrations are similar to physiologic levels. Histone H1 (lysine rich) is used in the assay as the phosphorylation acceptor protein because it is readily available and serves as a good substrate for protein kinase C. The enzyme is prepared from rat brain and is purified to apparent homogeneity as determined by a single band on silver stained SDS-polyacrylamide. Studies on the mechanism of regulation of protein kinase C by phospholipids, DAG and Ca^+2 have been hampered by the physical properties of the lipid cofactors. In the screening assay, phosphatidylserine (PS) and DAG are cosonicated to form unilamellar and multilamellar vesicles. The concentration of lipids in the assay are suboptimal to maximize the detection potential of the assay for inhibitors. […] The assay is started with the addition of enzyme and stopped after 10 min by the addition of 25% trichloroacetic acid (TCA) and 1.0 mg/ml bovine serum albumin (BSA). The radioactive histone product is retained and washed on glass fiber filters that allow the unreacted ^32 P-ATP to pass through. The amount of phosphorylation is determined by the radioactivity measured in a scintillation counter. Controls are included in every assay to measure background activity in the absence of enzyme, activity in the absence of lipids and the maximum enzyme activity with saturating levels of the activator lipids.

For experiment [2], the system named is MCF-7/ADR adriamycin resistant line of MCF-7 cells. Kind of experiment: Human tumor growth inhibition, 3H-thymidine incorporation, MCF-7/ADR. It is filed as cell-based. The note with it: MCF-7/ADR vs MCF-7. The text has this:
(§1) MCF-7 a human breast tumor cell line, and MCF-7/ADR an adriamycin resistant line of MCF-7 cells were obtained from the National Cancer Institute, Frederick, Md. NHEK a human keratinocyte cell line was obtained from Clonetic Corp., San Diego, Calif. 8226 a human myeloma cell line, 8226/MT a Mitoxantrone resistant line of 8226 cells, and 8226 ADR an adriamycin resistant line of 8226 cells were obtained from Dr. Bill Dalton, Arizona Cancer Center, Tuscon, Ariz.
(§2) Human tumor cells are trypsinized (0.05% trypsin, GIBCO), counted with a hemacytometer and seeded at a concentration of 10,000 cells/well in a 96 well microtiter plate. After allowing cells to attach to the surface overnight, the culture medium is aspirated and replaced with 100 μl of fresh medium. Test agents are diluted to determine dose response at 2× final concentration and added in quadruplicate at 100 μl/well to bring the total volume of each well to 200 μl. The microtiter plate is then incubated at 37° C. 5% CO2 overnight (18-24 hrs) before ^3 H-thymidine is added at a concentration of 0.5 μCi/well in 50 μl culture medium. The plate is incubated again for 4 hrs under the same conditions as above. Supernatant is then aspirated and 50 μl trypsin (0.05%, GIBCO) is added to each well. Cells are checked microscopically to determine detachment from surfaces, and plates are then harvested with a cell harvester (PHD, Cambridge Technology, Inc.) Filter papers corresponding to wells are placed in scintillation vials and counted to determine the amount of ^3 H-thymidine incorporated by the cells. Test agent response is compared to a positive control of cell wells with culture media only to determine the IC50. IC50 is the concentration of test compound required to inhibit fifty percent of the incorporation of ^3 H-thymidine into proliferating cells not exposed to test agent. Uptake of ^3 H-thymidine is a standard test for measuring the metabolism of cells. Cells which are actively proliferating take up ^3 H-thymidine, whereas cells that are not proliferating take up ^3 H-thymidine at much slower rates or not at all. Test agents that inhibit the uptake of ^3 H-thymidine thus slow the growth of cells.

Experiment [3] concerns 8226 human myeloma cell line. Kind of experiment: Human tumor growth inhibition, 3H-thymidine incorporation, 8226. It is filed as cell-based. The note with it: 3H-thymidine uptake, read-out: IC50 8226.
Source text: as §1, §2
In general terms: Dividing cells build labelled thymidine or BrdU into new DNA.

For experiment [4], the system named is 8226/ADR adriamycin resistant line of 8226 cells. Kind of experiment: Human tumor growth inhibition, 3H-thymidine incorporation, 8226/ADR. It is filed as cell-based. The following applies: 8226/ADR vs 8226.
Source text: as §1, §2

Experiment [5] concerns NHEK human keratinocytes. Kind of experiment: Human keratinocyte inhibition, 3H-thymidine incorporation. It is filed as cell-based. The procedure: Human tumor cells are trypsinized (0.05% trypsin, GIBCO), counted with a hemacytometer and seeded at a concentration of 10,000 cells/well in a 96 well microtiter plate. After allowing cells to attach to the surface overnight, the culture medium is aspirated and replaced with 100 μl of fresh medium. Test agents are diluted to determine dose response at 2× final concentration and added in quadruplicate at 100 μl/well to bring the total volume of each well to 200 μl. The microtiter plate is then incubated at 37° C. 5% CO2 overnight (18-24 hrs) before ^3 H-thymidine is added at a concentration of 0.5 μCi/well in 50 μl culture medium. The plate is incubated again for 4 hrs under the same conditions as above. […] Cells are checked microscopically to determine detachment from surfaces, and plates are then harvested with a cell harvester (PHD, Cambridge Technology, Inc.) Filter papers corresponding to wells are placed in scintillation vials and counted to determine the amount of ^3 H-thymidine incorporated by the cells. […]
Proliferating keratinocytes (NHEK cells purchased from Clonetics, Inc. San Diego, Calif.) in second passage were grown in Keratinocyte Growth Medium (KGM) (Clonetics, Inc.) Cells were trypsinized with 0.025% trypsin (Clonetics), counted with a hemacytometer (Scientific Products), and seeded at a concentration of 2,500 cells/well in a 96 well microtiter plate. […]

Experiment [6] deals with P388 murine leukemia. As to the kind of experiment: P388 leukemia tumor assay in mice, survival time. It is filed as in vivo, mouse. From the text: P388 Leukemia Tumors. Mice were young adult, pathogen-free, BALA/c×DBA/2 F1 (i.e., CD2F1) females purchased from Charles River Laboratories. The tumor line was the P388 murine leukemia, ascites form, obtained from the National Cancer Institute (NCI) Tumor Repository (Frederick, Md.). The tumor was maintained in the serial passage in mice by periodic intraperitoneal (ip) implantation. For this experiment, 10^6 hemacytometer-counted P388 murine leukemia cells were implanted ip into mice on Day 0. The mice were randomized into one untreated control group of 20 and 15 test groups of six mice each. All drug treatment was delivered ip on the basis of the average body weight of each group. […] Body weights were recorded on Days 1, 5, 9, 11, and 18. Deaths were recorded daily. Dying mice were necropsied, and the presence or absence of ascites or splenomegaly was recorded. Drug effectiveness was assessed on the basis of the survival time. Results were expressed as a percentage of the control survival time (Survival Time=T/C×100%; T=test animals; C=control animals). The criterion for effectiveness was determined by: T/C×100≥125 percent.

For experiment [7], the system named is MCF-7 human mammary carcinoma xenografts. Kind of experiment: MCF-7 human mammary carcinoma xenografts in athymic nude mice. It is filed as in vivo, mouse (human tumor xenograft). The note with it: FIG. 4. Background: Xenograft models place foreign cells or tissue in a host animal.
Experiment [8] has as its system MCF-7/ADR adriamycin resistant line of MCF-7 cells. Kind of experiment: Human tumor growth inhibition, 3H-thymidine incorporation, MCF-7/ADR. It is filed as cell-based. The note with it: NCI/ADR-RES, 3H-thymidine uptake.
Experiment [9] relates to 8226/ADR adriamycin resistant line of 8226 cells. As to the kind of experiment: Human tumor growth inhibition, 3H-thymidine incorporation, 8226/ADR. It is filed as cell-based. The note with it: 3H-thymidine uptake.
For experiment [10], the system named is 8226/MT Mitoxantrone resistant line of 8226 cells. Kind of experiment: Human tumor growth inhibition, 3H-thymidine incorporation, 8226/MT.

Regarding `CCN(CC)CC(O)CNc1ccc(NCC2CO2)c2c1C(=O)c1ccccc1C2=O` (stereo not drawn) [Compound 1b-1, 1-(3-diethylamino-2-hydroxypropylamino)-4-(2,3-epoxypropylamino)-9, 10-anthracenedione], the IC50 in [1] was determined as 110000 nM; in experiment [3], 60 nM; in experiment [5] it was 40 nM; in experiment [8], 60 nM; in [9], 16 nM; in [10] (Homo sapiens, read-out: IC50 8226/MT) it was 8 nM. Besides, in experiment [2], the “Resistance Ratio (IC50 MCF-7/ADR to IC50 MCF-7)” value came out at 2.4. Besides, the “Resistance Ratio (8226/ADR)” value in experiment [4] is given as 0.26. Further, the “% T/C p388 Leukemia” value in experiment [6] (16 mg/kg, Q4D × 3, ip, survival time) amounted to 140%. The “survival time of mice (in words)” value in [6] (all dosages and schedules) was “effectively increased the survival time”. Besides, the “median tumor weight vs control mice (in words)” value in experiment [7] (at stabilization) is listed as “significantly lower than the weight of the control mice”. Moreover, the “day at which tumor growth was stabilized” value in experiment [7] (iv, once every four days, five injections) is roughly 30 days. Further, in experiment [7] (then tumor regrowth), the “day until which median tumor weight remained stable” value was roughly 38 days. Further, the “Resistance Ratio (8226/MT)” value in experiment [10] (8226/MT vs 8226) is recorded as 0.13. Further, the “ratio of IC50 for 8226 cells to IC50 for 8226/MT cells” value in experiment [10] (text wording of ratio) is listed as 0.13.
